Experimental data from publication PMC6150007 (Molecules : A Journal of Synthetic Chemistry and Natural …, 2017).
In brackets after ≈: the same amount, converted by molar mass. Read-outs that look alike come from different tables or passages of the source.

Assays:
[1] = physchem
Experimental: (§5) n-Octanol (analytical reagent from Sigma-Aldrich) and the appropriate buffer were mutually saturated in a separatory funnel. Potassium phosphate buffer (100 mM) at pH 6.4, 7.4 and 7.8 served as the aqueous buffer phases. […] The vessels were shaken by hand for 5 min and centrifuged at 4000× g for 10 min. […] The logD value at a given pH is equal to the logarithm of the octanol/buffer partition coefficients (D). […] LogD values are given as mean ± standard deviation of triplicate determinations. Using the same protocol as above, the logD values at pH 6.4, 7.4 and 7.8 for lazabemide were also determined.

[2] = tested on: brain MAO-B; conditions: cited from earlier work
[3] = in vitro; conditions: PAMPA
Experimental: (§6) The HPLC system consisted of an Agilent 1200 series HPLC system with a binary gradient pump, autosampler and vacuum degasser coupled to an Agilent 1200 series variable-wavelength detector (Santa Clara, CA, USA). The analyses were carried out with Venusil XBP C18 column (4.60 mm × 150 mm, 5 μm, Bonna-Agela Technologies, Wilmington, DE, USA). […] The effluent was monitored at 276 nm. […] The effluent was monitored at 280 nm. A volume of 20 µL of the samples was injected into the HPLC system.
(§7) The precoated parallel artificial membrane permeability assay (PAMPA) plate system was obtained from BD Biosciences. Prior to use, the pre-coated PAMPA plates were warmed to room temperature for at least 30 min. Once warmed to room temperature, the plate system was used within 24 h. A volume of 300 µL of the test compound solution in potassium phosphate buffer (100 mM, pH 6.4, 7.4 and 7.8) or in sodium acetate buffer (50 mM, pH 3.7, 4.7 and 5.7) was added per well in the receiver/donor plate (bottom). The final concentration of the test compounds was 200 µM in each well. A volume of 200 µL of potassium phosphate buffer (100 mM, pH 6.4, 7.4 and 7.8) or sodium acetate buffer (50 mM, pH 3.7, 4.7 and 5.7) was then added per well to the filter/acceptor plate (top). The filter plate was placed on the receiver plate by slowly lowering the precoated PAMPA plate until it was seated on the receiver plate. The assembly was incubated at room temperature for 5 h. The precoated PAMPA plate and the receiver plate were separated. The compound concentrations were determined using the HPLC system described above. The permeability values are given as mean ± standard deviation of triplicate determinations [38].

[4] = tested on: striatal monoamines and metabolites; conditions: for concentration reached in the brain: mouse, in vivo
Experimental: The delivery of dopamine by the prodrug was thus indirectly assessed by measuring dopamine levels in the striatal tissue of mice following treatment with the prodrug. For this purpose, the measurement of dopamine metabolites and other monoamine neurotransmitters and their metabolites was also included. […] Another four groups (n = 3 mice/group) were treated in the same manner by intraperitoneal injection. The animals were sacrificed 60 min after treatment, the striata were dissected and the concentrations of dopamine, 3,4-dihydroxyphenylacetic acid (DOPAC), homovanillic acid (HVA), noradrenaline, serotonin and 5-hydroxyindoleacetic acid (HIAA) were measured [40].
Male C57BL/6 mice were weighed and allocated into 4 groups of 3 mice each. […] A second set of 4 groups (n = 3) were treated in the same manner by intraperitoneal injection. All solutions were prepared in sterile saline and administered at volumes of 0.1 mL for oral gavage and 0.2 mL for intraperitoneal injection. The animals were euthanised 60 min after treatment and the striata were dissected and stored at −80 °C until the day of the experiment. The concentrations of dopamine, 3,4-dihydroxyphenylacetic acid (DOPAC), homovanillic acid (HVA), noradrenaline, serotonin and 5-hydroxyindoleacetic acid (5-HIAA) were determined according to the published protocol, and are reported as mean ± standard deviation of each group [40]. Prism version 5 (GraphPad Software, San Diego, CA, USA) was used for the statistical analyses and for the preparation of graphical presentations. Data were analysed by one-way analysis of variance (ANOVA) across all groups, and were subsequently subjected to the Dunnett’s post-hoc test to determine statistical differences between the means. A p-value of <0.05 indicates a statistically significant difference.

[5] = cited from earlier work
[6] = parameters: method as in PMID 19930170; conditions: mice; oral administration of L-dopa and carbidopa; cited from earlier work
[7] = PAMPA, 5 h, 200 µM
Experimental: as §6, §7

[8] = parameters: method as in PMID 20646792; conditions: after oral administration of L-dopa prodrugs to rats; cited from earlier work
[9] = tested on: HeLa cells; experiment: MTT cell viability assay; format: cell-based, human; conditions: 100 µM, 24 h
Text: (§1) For this purpose, the MTT cell viability assay was used. The MTT assay is a standard cell viability assay, measuring mitochondrial activity in live (metabolically viable) cells. Metabolically active mitochondria in viable cells have the ability to reduce MTT to coloured formazan crystals that can be quantitated spectrophotometrically. The presence of a toxic agent will reduce cell viability and thus limit the reduction of MTT to the formazan product. For this study, HeLa cells were selected. This selection was based on the high growth rate of HeLa cells and on the observation that these cells are frequently used to measure cell viability in the presence of toxic agents.
(§2) HeLa cells were maintained in 250 cm^2 flasks in 30 mL Dulbecco’s Modified Eagle Medium (DMEM) containing 10% fetal bovine serum, 1% penicillin (10,000 units/mL)/streptomycin (10 mg/mL) and 0.1% fungizone (250 µg/mL). The cells were incubated at 37 °C in an atmosphere of 10% CO2. Once confluent, the cells were seeded at 500,000 cells/well in 24-well plates and incubated for 24 h. A volume of 3 mL trypsin/EDTA (0.25%/0.02%) was used to facilitate cell detachment and the counting of cells was done with a haemocytometer. The wells were subsequently rinsed with 0.5 mL DMEM containing no fetal bovine serum. A volume of 0.99 mL DMEM (containing no fetal bovine serum) was subsequently added to each well followed by 10 µL of the test drug. Stock solutions of the test drugs were prepared in deionised water and sterilised via a 0.22 µm syringe filter. In each 24-well plate, wells were reserved as positive controls (100% cell death via lyses with 0.3% formic acid) and negative controls (0% cell death as a result of no treatment). The well-plates were incubated for a further 24 h after which the culture medium was aspirated from the cells. The wells were washed twice with 0.5 mL/well phosphate-buffered saline (PBS) and 200 µL of 0.05% MTT reagent (3-(4,5-dimethylthiazol-2-yl)-2,5-diphenyltetrazolium bromide) in PBS was added to each well. The well-plates were incubated at 37 °C for 2 h in the dark, the MTT reagent was aspirated from the wells and 250 µL isopropanol was added to each well. The well-plates were then incubated at room temperature for 5 min to dissolve the purple formazan crystals, whereafter 100 µL of the isopropanol phase was transferred to a 96-well plate. The absorbance of each isopropanol phase was measured spectrophotometrically at 560 nm.

[10] = MTT cell viability assay; format: cell-based, human; conditions: human, HeLa cells, read-out: percentage of viable cells remaining
Text: as §1, §2

[11] = Shake-flask logD determination (n-octanol/buffer); conditions: n-octanol/potassium phosphate buffer 100 mM
Experimental: as §5

[12] = Chemical stability in aqueous buffer (HPLC); format: physicochemical; conditions: 50 µM, room temperature
Experimental: (§3) The effluent was monitored at 276 nm. […] The effluent was monitored at 280 nm.
The stock solution was immediately diluted to 50 µM and the resulting solution was analysed by the HPLC method described above. The first injection served as reference point, after which the same solution was again injected at 1 h, 3 h, 6 h, 9 h and 11 h. During this time, the test solution remained at room temperature in the autosampler tray. The stabilities of the prodrug in the selected buffer phases are reported as the percentage mean ± standard deviation of the first injection, which served as reference point.

[13] = Plasma stability, human plasma; format: in vitro ADME; conditions: 37 °C, approx. 200 µM spiked
Experimental: as §3
(§4) Plasma was collected in 0.5 mL MiniCollect® heparin plasma tubes (Greiner Bio-One, Kremsmünster, Austria) and centrifuged at 5500 rpm. Liver and brain tissue were collected, placed on ice and rinsed with 0.25 M sucrose dissolved in water. Sucrose solution was added to the tissue at a ratio 1:3 (w/v), the tissues were cut into small pieces using scissors and homogenised by 2 passes (60 s each) using a Potter–Elvehjem homogeniser (1200 rev/min, Potter–Elvehjem, Kennesaw, GA, USA). Care was taken to cool the homogeniser in ice during this procedure. […] The stock solution was immediately diluted to approximately 200 µM into plasma or tissue homogenate (preheated to 37 °C) and the resulting mixtures were analysed by the HPLC method described above. For this purpose, 100 µL of the spiked plasma or tissue homogenate was added to 300 µL acetonitrile (containing formic acid 1%) in a Phree tube. The tube was vortexed for 2 min and filtered under vacuum (9–10 mmHg). The collected solvent was evaporated under a stream of air, and the residue was redissolved in 100 µL methanol. A volume of 300 µL water was added and 20 µL of the resulting solution was analysed by the HPLC system. […] The concentration of lazabemide was also determined.

[14] = Tissue stability, rat liver homogenate; format: in vitro ADME; conditions: 37 °C
Experimental: as §3, §4

[15] = Plasma stability, rat plasma; format: in vitro ADME; conditions: 37 °C, approx. 200 µM spiked
Experimental: as §3, §4

[16] = Ionisation constant (pKa) by potentiometric titration; format: physicochemical
Experimental: The prodrug was titrated in 0.1 mL increments and the pH was recorded after each addition. A total of 1 mL KOH was added to fully neutralise the primary amine group of the prodrug. The results were subsequently tabulated according to the method described in literature, and the pKa value was calculated.

[17] = Solubility in water and potassium phosphate buffer; format: physicochemical; conditions: thermodynamic from solid, 37 °C
Experimental: This yielded a theoretical concentration of 6.0 mg/mL. The tubes were agitated for 24 h in a water bath at 37 °C and were subsequently centrifuged at 16,000× g for 10 min. The samples were filtered through a 0.22 µm syringe filter and diluted 150-fold into water or potassium phosphate buffer (100 mM, pH 7.4). The absorbances of the resulting solutions were recorded at a wavelength of maximal absorbance of 276 nm.

For NCCNC(=O)c1ccc(Cl)cn1 [Lazabemide], which logD ([1]; pH 6.4, LogD) is on record?
Its logD is -1.18.

And the logD ([1]; pH 7.4, LogD)?
The logD was -0.68.

What about the logD ([1]; pH 7.8, LogD) of the same compound?
Its logD is -0.63.

What about the “time for enzyme activity to return to baseline after drug discontinuation” value ([2]; MAO-B) of the same compound?
Its value is no more than 36 h.

And the “inhibition of brain MAO-B” value ([2]; at least 0.4 mg/kg every 12 h, patients with early Parkinson’s disease)?
The value was greater than 90%.

And the Papp at 5 h, 200 µM ([3]; pH 3.7)?
Its Papp at 5 h, 200 µM is 0.0427 ×10⁻⁶ cm/s.

What about the Papp at 5 h, 200 µM ([3]; pH 4.7) of the same compound?
The Papp at 5 h, 200 µM was 0.0871 ×10⁻⁶ cm/s.

What about the Papp at 5 h, 200 µM ([3]; pH 5.7) of the same compound?
The Papp at 5 h, 200 µM was 0.148 ×10⁻⁶ cm/s.

And the Papp at 5 h, 200 µM ([3]; pH 6.4)?
Its Papp at 5 h, 200 µM is 0.355 ×10⁻⁶ cm/s.

And the Papp at 5 h, 200 µM ([3]; pH 7.4)?
Its Papp at 5 h, 200 µM is 1.62 ×10⁻⁶ cm/s.

And the Papp at 5 h, 200 µM ([3]; pH 7.8)?
The Papp at 5 h, 200 µM was 2.14 ×10⁻⁶ cm/s.

What about the “concentration reached in the brain” value [4] of the same compound?
The value was “too low to be reliably detected”.

With N[C@@H](Cc1ccc(O)c(O)c1)C(=O)O [L-Dopa] as the compound, how does the half-life [5] read?
The half-life was “approximately 90 min”.

What about the “fraction of the administered oral dose reaching the brain unchanged” value ([5]; oral, estimated) of the same compound?
Its value is “less than 1%”.

What about the “time to peak plasma levels” value [6] of the same compound?
Its value is 30 to 60 min.

What about the logPe [7] of the same compound?
Its logPe is “smaller than −7.99”.

And the “plasma half-life of L-dopa” value [8]?
The value was 0.85 to 1.62 h.

What about the Papp at 5 h, 200 µM ([3]; pH 3.7) of the same compound?
The Papp at 5 h, 200 µM was 0.0102 ×10⁻⁶ cm/s.

And the Papp at 5 h, 200 µM ([3]; pH 4.7)?
The Papp at 5 h, 200 µM was 0.00891 ×10⁻⁶ cm/s.

What about the Papp at 5 h, 200 µM ([3]; pH 5.7) of the same compound?
The Papp at 5 h, 200 µM was 0.00603 ×10⁻⁶ cm/s.

And the Papp at 5 h, 200 µM ([3]; pH 6.4)?
The Papp at 5 h, 200 µM was 0.0024 ×10⁻⁶ cm/s.

What about the Papp at 5 h, 200 µM ([3]; pH 7.4) of the same compound?
The Papp at 5 h, 200 µM was 0.00676 ×10⁻⁶ cm/s.

And the Papp at 5 h, 200 µM ([3]; pH 7.8)?
Its Papp at 5 h, 200 µM is 0.00275 ×10⁻⁶ cm/s.

What about the “concentration reached in the brain” value [4] of the same compound?
Its value is “too low to be reliably detected”.

And the “percentage of viable cells remaining” value [9]?
The value was 79.3 ± 13.0%.

And the viability at 24 h, 1 µM [10]?
Its viability at 24 h, 1 µM is 102 ± 4.19%.

And the viability at 24 h, 10 µM [10]?
The viability at 24 h, 10 µM was 105 ± 5.24%.

What about the viability at 24 h, 100 µM [10] of the same compound?
The viability at 24 h, 100 µM was 79%.

With N[C@@H](Cc1ccc(O)c(O)c1)C(=O)NCCNC(=O)c1ccc(Cl)cn1 [L-dopa–lazabemide prodrug] as the compound, how does the logD ([11]; n-octanol/potassium phosphate buffer, pH 7.4, LogD, pH 7.4) read?
The logD was 0.199 ± 0.002.

And the logD ([11]; n-octanol/potassium phosphate buffer, pH 7.8, LogD, pH 7.8)?
Its logD is 0.319 ± 0.003.

What about the logD ([11]; pH 6.4) of the same compound?
The logD was less than 0.

And the logD ([11]; pH 6.4, listed as Prodrug)?
Its logD is “–4.58 ± 0.002”.

And the “chemical stability in aqueous buffer” value ([12]; pH 3.7–7.4, up to 11 h)?
Its value is “stable”.

What about the prodrug concentration remaining ([12]; pH 7.8, 11 h, relative to first injection) of the same compound?
The prodrug concentration remaining was 90.3%.

What about the prodrug concentration remaining ([13]; 17 h) of the same compound?
The prodrug concentration remaining was 64 to 68 µM.

What about the stability in plasma ([13]; up to 8 h) of the same compound?
The stability in plasma was “stable”.

And the half-life at 200 µM ([14]; approximate, read-out: t½)?
The half-life at 200 µM was roughly 1 h.

And the prodrug remaining ([14]; 4 h incubation)?
The prodrug remaining was 37%.

What about the prodrug concentration remaining ([15]; 17 h) of the same compound?
Its prodrug concentration remaining is 70.5 µM.

And the stability in plasma ([15]; up to 8 h)?
The stability in plasma was “relatively stable”.

What about the Papp at 5 h, 200 µM ([3]; pH 3.7) of the same compound?
Its Papp at 5 h, 200 µM is 0.00955 ×10⁻⁶ cm/s.

And the Papp at 5 h, 200 µM ([3]; pH 4.7)?
The Papp at 5 h, 200 µM was 0.0155 ×10⁻⁶ cm/s.

What about the Papp at 5 h, 200 µM ([3]; pH 5.7) of the same compound?
The Papp at 5 h, 200 µM was 0.0195 ×10⁻⁶ cm/s.

What about the Papp at 5 h, 200 µM ([3]; pH 6.4) of the same compound?
Its Papp at 5 h, 200 µM is 0.0195 ×10⁻⁶ cm/s.

What about the Papp at 5 h, 200 µM ([3]; pH 7.4) of the same compound?
The Papp at 5 h, 200 µM was 0.0295 ×10⁻⁶ cm/s.

What about the Papp at 5 h, 200 µM ([3]; pH 7.8) of the same compound?
The Papp at 5 h, 200 µM was 0.0468 ×10⁻⁶ cm/s.

And the “striatal DOPAC levels” value ([4]; 63.5 µmol/kg intraperitoneal, 60 min, vs saline)?
Its value is “significant reduction”.

And the “striatal serotonin and 5-HIAA levels” value ([4]; 63.5 µmol/kg oral gavage or ip, 60 min)?
Its value is “not altered”.

What about the striatal dopamine levels ([4]; 63.5 µmol/kg oral gavage or ip, 60 min, vs saline) of the same compound?
The striatal dopamine levels was “does not enhance”.

And the “concentration reached in the brain” value [4]?
The value was “too low to be reliably detected”.

And the pKa ([16]; amine group, titration with KOH in water)?
Its pKa is 7.25 ± 0.16.

What about the “fraction existing as neutral uncharged species” value ([16]; pH 5.5) of the same compound?
Its value is 1–2%.

What about the “fraction existing as neutral uncharged species” value ([16]; pH 7.4) of the same compound?
Its value is “approximately 59%”.

What about the solubility at 24 h ([17]; aqueous buffer, potassium phosphate buffer pH 7.4, 6000 μg/mL theoretical, 24 h, read-out: Solubility, Amount Measured) of the same compound?
Its solubility at 24 h is 6140 ± 730 µg/mL (≈ 16.2 mM).

And the solubility at 24 h ([17]; water, 6000 μg/mL theoretical, 24 h, read-out: Solubility, Amount Measured)?
The solubility at 24 h was 6280 ± 747 µg/mL (≈ 16.6 mM).

And the solubility at 24 h ([17]; water and potassium phosphate buffer, aqueous buffer, water and buffer pH 7.4, read-out: minimum solubility)?
Its solubility at 24 h is no less than 6000 µg/mL.

What about the “percentage of viable cells remaining” value [9] of the same compound?
The value was 34.9 ± 7.94%.

What about the viability at 24 h, 1 µM [10] of the same compound?
The viability at 24 h, 1 µM was 112 ± 12%.

And the viability at 24 h, 10 µM [10]?
Its viability at 24 h, 10 µM is 52.1 ± 14%.

What about the viability at 24 h, 100 µM [10] of the same compound?
The viability at 24 h, 100 µM was 35%.
